These compounds were tested against c-Kit kinase (Homo sapiens (Human), UniProt P10721) (assay: c-Kit biochemical assay (AlphaScreen kinase activity)).
How it was run: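 AlphaScreen: c-Kit phosphorylates biotin-(E4Y)3 (100 nM) at 10 μM ATP, pH 7.2 HEPES buffer with Mg/Mn, 5% DMSO, 1 h room temperature; streptavidin donor and PY30 acceptor beads detect product. Second format: 100 μM ATP, 30 nM biotin-(E4Y)10, pH 7.5. IC50 from 8-point 1:3 dilution curves.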

Sequence of c-Kit kinase (P10721 26-976): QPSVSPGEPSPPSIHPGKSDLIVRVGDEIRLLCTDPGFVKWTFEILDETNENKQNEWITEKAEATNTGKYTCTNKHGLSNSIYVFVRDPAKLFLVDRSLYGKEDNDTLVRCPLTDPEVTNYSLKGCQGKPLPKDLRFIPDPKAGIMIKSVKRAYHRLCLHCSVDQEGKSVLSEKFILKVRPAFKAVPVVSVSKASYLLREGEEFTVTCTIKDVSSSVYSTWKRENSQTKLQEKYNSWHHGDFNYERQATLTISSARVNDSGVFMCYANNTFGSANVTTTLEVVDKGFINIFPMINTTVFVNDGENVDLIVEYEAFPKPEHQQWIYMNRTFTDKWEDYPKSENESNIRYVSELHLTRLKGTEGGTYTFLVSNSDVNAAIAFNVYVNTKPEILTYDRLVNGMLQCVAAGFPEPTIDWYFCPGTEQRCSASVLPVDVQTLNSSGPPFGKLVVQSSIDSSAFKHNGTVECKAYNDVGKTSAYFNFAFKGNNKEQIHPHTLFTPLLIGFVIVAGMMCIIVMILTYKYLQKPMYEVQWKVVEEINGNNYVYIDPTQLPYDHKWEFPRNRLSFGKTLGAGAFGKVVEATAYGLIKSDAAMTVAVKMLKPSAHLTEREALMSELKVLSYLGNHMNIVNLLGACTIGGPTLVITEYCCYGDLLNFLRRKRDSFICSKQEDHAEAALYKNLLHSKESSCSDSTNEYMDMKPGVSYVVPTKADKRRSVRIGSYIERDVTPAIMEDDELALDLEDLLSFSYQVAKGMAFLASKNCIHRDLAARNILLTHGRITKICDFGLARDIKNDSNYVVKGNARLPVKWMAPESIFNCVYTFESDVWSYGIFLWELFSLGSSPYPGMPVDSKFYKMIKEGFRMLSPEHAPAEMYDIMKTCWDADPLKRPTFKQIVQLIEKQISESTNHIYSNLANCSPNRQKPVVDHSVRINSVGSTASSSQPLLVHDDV

SMILES | IC50 [µM]
Cc1nc(C2(C)CCN(c3ncnc4[nH]c(-c5ccc(N6CCOCC6)nc5)cc34)CC2)[nH]c1-c1cccc(OC(F)F)c1 [P-3238, 4-[5-[4-[4-[5-[3-(difluoromethoxy)phenyl]-4-methyl-1H-imidazol-2-yl]-4-methyl-1-piperidyl]-7H-pyrrolo[2,3-d]pyrimidin-6-yl]-2-pyridyl]morpholine] | 0.0001 to 1
Cc1nc(C2(C)CCN(c3ncnc4[nH]c(-c5ccc(C(N)=O)cc5)cc34)CC2)[nH]c1-c1ccc(C(F)F)cc1 [P-3239, 4-[4-[4-[5-[4-(difluoromethyl)phenyl]-4-methyl-1H-imidazol-2-yl]-4-methyl-1-piperidyl]-7H-pyrrolo[2,3-d]pyrimidin-6-yl]benzamide] | 0.0001 to 1
Cc1nc(C2(C)CCN(c3ncnc4[nH]c(-c5ccc(OCC(=O)O)cc5)cc34)CC2)[nH]c1-c1ccc(C(F)F)cc1 [P-3240, 2-[4-[4-[4-[5-[4-(difluoromethyl)phenyl]-4-methyl-1H-imidazol-2-yl]-4-methyl-1-piperidyl]-7H-pyrrolo[2,3-d]pyrimidin-6-yl]phenoxy]acetic acid] | 0.0001 to 1
Cc1nc(C2(C)CCN(c3ncnc4[nH]c(-c5ccc(OCC(=O)O)cc5)cc34)CC2)[nH]c1-c1ccc(OC(F)F)cc1 [P-3241, 2-[4-[4-[4-[5-[4-(difluoromethoxy)phenyl]-4-methyl-1H-imidazol-2-yl]-4-methyl-1-piperidyl]-7H-pyrrolo[2,3-d]pyrimidin-6-yl]phenoxy]acetic acid] | 0.0001 to 1
Cc1nc(C2(C)CCN(c3ncnc4[nH]c(-c5cnn(C(F)F)c5)cc34)CC2)[nH]c1-c1ccc(OC(F)F)cc1 [P-3242, 4-[4-[5-[4-(difluoromethoxy)phenyl]-4-methyl-1H-imidazol-2-yl]-4-methyl-1-piperidyl]-6-[1-(difluoromethyl)pyrazol-4-yl]-7H-pyrrolo[2,3-d]pyrimidine] | 0.0001 to 1
CCOc1ccc(-c2[nH]c(C3(C)CCN(c4ncnc5[nH]c(-c6ccc(C(N)=O)cc6)cc45)CC3)nc2C)cc1C [P-3243, 4-[4-[4-[5-(4-ethoxy-3-methyl-phenyl)-4-methyl-1H-imidazol-2-yl]-4-methyl-1-piperidyl]-7H-pyrrolo[2,3-d]pyrimidin-6-yl]benzamide] | 0.0001 to 1
CCOc1ccc(-c2[nH]c(C3(C)CCN(c4ncnc5[nH]c(-c6ccc(OCC(=O)O)cc6)cc45)CC3)nc2C)cc1C [P-3244, 2-[4-[4-[4-[5-(4-ethoxy-3-methyl-phenyl)-4-methyl-1H-imidazol-2-yl]-4-methyl-1-piperidyl]-7H-pyrrolo[2,3-d]pyrimidin-6-yl]phenoxy]acetic acid] | 0.0001 to 1
CCOc1ccc(-c2[nH]c(C3(C)CCN(c4ncnc5[nH]c(-c6cnn(C(F)F)c6)cc45)CC3)nc2C)cc1C [P-3245, 6-[1-(difluoromethyl)pyrazol-4-yl]-4-[4-[5-(4-ethoxy-3-methyl-phenyl)-4-methyl-1H-imidazol-2-yl]-4-methyl-1-piperidyl]-7H-pyrrolo[2,3-d]pyrimidine] | 0.0001 to 1
CNC(=O)c1ccc(-c2cc3c(N4CCC(C)(c5nc(C)c(-c6ccc(OC(F)F)cc6)[nH]5)CC4)ncnc3[nH]2)cn1 [P-3246, 5-[4-[4-[5-[4-(difluoromethoxy)phenyl]-4-methyl-1H-imidazol-2-yl]-4-methyl-1-piperidyl]-7H-pyrrolo[2,3-d]pyrimidin-6-yl]-N-methyl-pyridine-2-carb oxamide] | 0.0001 to 1
CCOc1ccc(-c2[nH]c(C3(C)CCN(c4ncnc5[nH]c(-c6ccc(C(=O)NC)nc6)cc45)CC3)nc2C)cc1C [P-3247, 5-[4-[4-[5-(4-ethoxy-3-methyl-phenyl)-4-methyl-1H-imidazol-2-yl]-4-methyl-1-piperidyl]-7H-pyrrolo[2,3-d]pyrimidin-6-yl]-N-methyl-pyridine-2-carb oxamide] | 0.0001 to 1
Cc1nc(C2(C)CCN(c3ncnc4[nH]c(-c5ccc(N6CCOCC6)nc5)cc34)CC2)[nH]c1-c1ccc(OC(F)F)cc1 [P-3248, 4-[5-[4-[4-[5-[4-(difluoromethoxy)phenyl]-4-methyl-1H-imidazol-2-yl]-4-methyl-1-piperidyl]-7H-pyrrolo[2,3-d]pyrimidin-6-yl]-2-pyridyl]morpholine] | 0.0001 to 1
CCOc1ccc(-c2[nH]c(C3(C)CCN(c4ncnc5[nH]c(-c6ccc(N7CCOCC7)nc6)cc45)CC3)nc2C)cc1C [P-3249, 4-[5-[4-[4-[5-(4-ethoxy-3-methyl-phenyl)-4-methyl-1H-imidazol-2-yl]-4-methyl-1-piperidyl]-7H-pyrrolo[2,3-d]pyrimidin-6-yl]-2-pyridyl]morpholine] | 0.0001 to 1
